Source: US20130096138A1, “NOVEL THIOUREA OR UREA DERIVATIVE, PREPARATION METHOD THEREOF, AND PHARMACEUTICAL COMPOSITION FOR PREVENTING OR TREATING AIDS, CONTAINING SAME AS ACTIVE INGREDIENT” (AVIXGEN INC., priority 2010, published 2013)

tested on: HIV; experiment: Assay for inhibitory activity against HIV (p24 ELISA, infected MT-4 cells); type: cell-based; details: Human immunodeficiency virus 1, MT4, MT-4 cells infected with pNL4-3-derived HIV, 48 hrs + additional 48 hrs culture, read-out: Conc. for Inhibition of HIV Activity (IC50)
Procedure: The thiourea or urea derivatives of the present invention were assayed for inhibitory activity against HIV as follows.
A pNL4-3 vector carrying an HIV genome was transduced into 293FT cells. […] 293FT cells were seeded at a density of 3.0×10^5 cells/well into 6-well plates containing antibiotic-free DMEM supplemented with 10% FBS and grown for 48 hrs. Upon 90˜95% confluency, the transduction was performed.
The DNA (pNL4-3) was added at a final concentration of 10 ng/mL to 250 μL of the reduced serum medium Opti-MEM I (GIBCO™, USA). Separately, 4 μL of Lipofectamine™ 2000 (Invitrogen, USA) was mixed with 250 μL of Opti-MEM I (GIBCO™), and incubated at room temperature for 5 min. The DNA (pNL4-3) was mixed at a ratio of 1:2 with the lipofectamine and reacted at room temperature for 20 min to form a DNA-lipofectamine complex. After removal of the medium from the cell culture, the DNA-lipofectamine complex was added to the cells and incubated for 4 hrs in a CO2 incubator. Then, the cell culture medium was replaced with a fresh antibiotic-free, 10% FBS-supplemented DMEM, followed by incubation for an additional 48 hrs. The HIV-infected cell culture was centrifuged at 1,500 rpm for 5 min to give a virus supernatant.
MT-4 cells were plated at a density of 1.0×10^6 cells/mL into 6-well plates containing RPMI supplemented with 10% FBS, and incubated for 4 hrs before infection at a ratio of 1:1 with the virus supernatant. The cells were incubated for 48 hrs in a CO2 incubator, after which the culture medium was replaced with a fresh one. Again, incubation was continued for an additional 72 hrs to amplify the virus. After centrifugation at 1,500 rpm for 5 min, the virus supernatant thus obtained was examined for virus density using a Virononstika HIV-1 Antigen Microelisa system kit (bioMerieux, Inc. Netherland).
2. Assay for Inhibitory Activity against HIV
The thiourea or urea derivatives prepared in Examples 1 to 94 were dissolved in DMSO to prepare respective 10 mM or 20 mM stocks, and stored at −20° C. The stocks were diluted to a starting concentration of 200 μM in DMSO before use in experiments.
MT-4 cells were suspended at a density of 4×10^5 cells in 200 μL of RPMI 1640 (Gibco, 10% FBS) per well of 24-well plates, and infected with 200 μL of a virus supernatant containing 2×10^5 pg/mL to give a total volume of 400 μL. After the stocks of the thiourea or urea derivatives were […] to 200 μM in DMSO, 2 μL of each dilution was added to the cells to a final concentration of 1 μM or less. For a positive control, 10 μM AZT (azidothymidine,Sigma, USA) was used at a final concentration of 50 nM while DMSO was used at a final concentration of 0.5% as a negative control. The cells were cultured for 48 hrs in a CO2 incubator (37° C., 5% CO2), and the culture medium was replaced by RPMI 1640 containing the thiourea or urea derivative at a final concentration of 1 μM, followed by incubation for an additional 48 hrs. Virus soups were separated from cells by centrifugation at 1,500 rpm for 5 min and then at 13,000 rpm for 5 min. ELISA for p24 concentrations was carried out using a Virononstika HIV-1 Antigen Microelisa system kit (bioMerieux, Inc. Netherland) to determine the inhibitory activity of each of the thiourea or urea derivatives against HIV.

Structure (SMILES) | IC50
CC(C)(C)c1ccc(C(=O)NC(=S)Nc2cccc3c(O)cccc23)cc1 [Example 1, 1-(4-tert-Butyl-benzoyl)-3-(5-hydroxy-naphthalen-1-yl)-thiourea] | 30 nM
CC(C)(C)c1ccc(C(=O)NC(=S)NC2CCCCC2)cc1 [Example 16, 1-(4-tert-butyl-benzoyl)-3-cyclohexyl-thiourea] | 500 nM
CC(C)(C)c1ccc(C(=O)NC(=S)Nc2ccccn2)cc1 [Example 37, 1-(4-tert-butyl-benzoyl)-3-(pyridin-2-yl)-thiourea] | 500 nM
CC(C)(C)c1ccc(C(=O)NC(=S)Nc2cccc(Cl)c2)cc1 [Example 38, 1-(4-tert-butyl-benzoyl)-3-(3-chloro-phenyl)-thiourea] | 300 nM
CC(C)(C)c1ccc(C(=O)NC(=S)Nc2cccc3ncccc23)cc1 [Example 50, 1-(4-tert-butyl-benzoyl)-3-(quinolin-5-yl)-thiourea] | 1000 nM
